Experimental data published in article PMC3308197 (Journal of Medicinal Chemistry, 2012).

Details: from measured plasma protein binding in vitro of 92%

Compound: Cc1cc(-c2nnc(N)nc2-c2ccccc2)cc(C(F)(F)F)n1 [Compound 4k, 6-[2-Methyl-6-(trifluoromethyl)pyridin-4-yl]-5-phenyl-1,2,4-triazin-3-amine]
- unbound plasma fraction: 8%
